Laboratory results published in US12274703B2, “Compositions and methods of treatment for neurological disorders comprising a dementia” (Gliapharm SA, priority 2017, dated 2025).

Experiments:
[1] = In vivo pharmacokinetics (PFC microdialysis and plasma); parameters: species or system mouse; details: after gavage with 100 mg/kg; sustained over several hours
Method: Mice were anesthetized using isoflurane (2% and 800 mL/min 02). Before surgery, Finadyne (1 mg/kg, s.c.) was administered for analgesia during surgery and the post-surgical recovery period. A mixture of bupivacaine and epinephrine was used for local anesthesia of the incision site of the periost of the skull.
The animals were placed in a stereotaxic frame (Kopf instruments, USA). MetaQuant microdialysis probes with a 3 mm exposed polyacrylonitrile membrane (MQ-PAN 3/3, Brainlink, the Netherlands) were implanted into the prefrontal cortex (coordinates for the tip of the probe: AP=+2.0 mm (to bregma), lateral=−0.7 mm (to midline), ventral=−3.3 mm (to dura), with the incisor bar set at 0.0 mm and an angle of 8°). All coordinates were based on “The mouse brain in stereotaxic coordinates” by Paxinos and Franklin (2004). The probes were attached to the skull with a stainless steel screw and dental cement (Fuji Plus Capsules, Henry Schein, the Netherlands).
In the same surgical procedure, a catheter was placed into the jugular vein to accommodate blood sampling. An indwelling cannula was inserted into the right jugular vein, and exteriorized through an incision on top of the skull. […]
PK was measured for GP-04, GP-05, GP-07, GP-R1 and GP-P1 in the PFC (prefrontal cortex) and plasma of wild type C56Bl/6 mice by CRO Brainsonline.

primary mouse astrocytes [2] = assay: Extracellular medium acidification (SNARF5), Example 2; type: cell-based; details: Astrocyte, 3 nM to 30 μM, 1.5 h and 3 h
Method: (§1) Primary cultures of cerebrocortical astrocytes were obtained from 1 to 2-day-old OF1 mouse pups (Charles River). Briefly, cortices were isolated and minced in small pieces under a dissecting microscope. The cells were incubated for 30 min at 37° C. in a solution containing 20 U/ml papain, 1 mM L-cysteine and 10 kU/ml DNase I. After dissociation, papain activity was stopped by the addition of fetal calf serum (FCS). Single-cell suspension was then obtained by mechanical dissociation, which consisted in cells trituration in a DMEM D7777 medium supplemented with 44 mm NaHCO3, 10 ml/L antibiotic/antimycotic solution and 10% FCS. […]
Secretion of lactate was measured indirectly through the acidification of extracellular medium using extracellular pH sensor SNARE-5F-(AND-6)-CAR (SNARF5). […] After 90 min stimulation, fluorescence was read at exc. […] The ratio of fluorescence between 630 nm and 580 emission values, which is proportional to extracellular pH, was calculated. […]
The extracellular medium acidification in primary mouse astrocytes treated with GP-A1 was quantified (FIG. 13). Extracellular medium acidification was measured over a period of 1.5 h and 3 h.

primary mouse astrocytes [3] = assay: Extracellular lactate quantification, Example 2; type: cell-based; details: Astrocyte, 3 nM to 30 μM, 1.5 h, read-out: EC50 release of lactate
Method: as §1
Secretion of L-lactate was measured in the extracellular medium of 96-well plated astrocytes after 90 min stimulation (at 37° C., in 5% CO2/95% air conditions) with Vehicle (DMSO), the compounds of the invention (100 nM to 100 μM) or positive control. […] To quantify lactate concentrations in the extracellular medium, 200 μl of a 0.2M Glycine-semicarbazide buffer (pH 10) containing 3 mM NAD and 14 U/ml LDH was added to each well of a 96-well plate containing 30 μl aliquots of extracellular medium. […] Fluorescence intensity (340 nm excitation/450 nm emission), which represents the amount of NADH produced, was measured, and lactate concentration values were determined relative to a standard curve of L-lactate concentrations. […]

CC(=O)N1CCc2sc(S(=O)(=O)N3CCN(c4ccccc4C)CC3)cc2C1 [P025-0159]
Levels in the PFC [1]: need chemical improvement to reach their target at therapeutic dose in the brain

COc1cc(C)c(Cl)cc1S(=O)(=O)NCc1ccncc1 [T5580243]
Levels in the PFC [1]: at therapeutic range (100 nM to 1 uM)

Cc1ccccc1NC(=O)C1CCCN(c2ncnc3oc(C)c(C)c23)C1 (stereo not shown) [F228-0422]
EC50 (primary mouse astrocytes [2]): 370 to 480 nM
EC50 (primary mouse astrocytes [3]): 590 nM
